The record followed here is PubChem BioAssay (NCI).

What all share (assay): growth of human tumour cells (NCI), 48 h
Assay [1] relates to OVCAR-4 ovarian.
Assay [2] has as its system MDA-MB-435.
For assay [3], the system named is RXF 393 renal.
Assay [4] concerns UO-31 renal.
Assay [5] has as its system SF-295 CNS.
In assay [6] the test system is MOLT-4 leukemia.
For assay [7], the system named is SK-OV-3 ovarian.
The test system of assay [8] is A549 NSCLC.
For assay [9], the system named is NCI/ADR-RES ovarian.
Assay [10] relates to SK-MEL-28 melanoma.
For assay [11], the system named is OVCAR-8 ovarian.
Assay [12] deals with COLO 205 colon.
Assay [13] concerns NCI-H460 lung.
Assay [14] has as its system UACC-257 melanoma.
For assay [15], the system named is MALME-3M melanoma.

Several values for one entry are separate records, joined by “and”; a condition that tells them apart may be missing. Equal values may be shown once.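 Where inhibition never reached the appropriate level, the endpoint shown equals the highest concentration tested. Otherwise, values were interpolated linearly from a five-concentration, 48-hour dose response in 96-well plates. Abbreviation: GI50, concentration required for 50% inhibition of growth. TGI: total growth inhibition.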

As to `COc1ccc(C(=O)C(CC2C(=O)CC(C)(C)C(C(=O)C(=O)Nc3c(C)cccc3C)C2=O)c2ccc(OC)cc2)cc1` (configuration not stated), the TGI in [1], in [2], in assay [3], in assay [4], in assay [5] and in assay [6] was more than 100 µM throughout. In addition, the TGI in [7], in assay [8], in assay [9], in [10], in [11] and in assay [12] was more than 100 µM throughout. The TGI in [13] and in assay [14] was more than 100 µM each time.
Consider `N#Cc1c(-c2ccccc2)c(C#N)c(=S)n(C2OCC(O)C(O)C2O)c1N` (configuration not stated), for which the TGI in [2], in assay [3], in [4], in assay [5], in assay [6] and in assay [7] was more than 100 µM each time. The TGI in assay [8], in assay [9], in assay [10], in assay [11], in assay [15] and in assay [13] was more than 100 µM throughout. Moreover, the TGI in assay [14] was more than 100 µM. Moreover, in [3], the GI50 was 26.7 µM and > 100 µM.
For `CCOC(=O)NC(C(C(=O)OCC)C(=O)OCC)(C(F)(F)F)C(F)(F)F`, the TGI in assay [1], in assay [2], in [3], in assay [4], in assay [5] and in assay [6] was more than 100 µM in each case. The TGI in [8], in [9], in assay [10], in assay [11], in [12] and in assay [15] was more than 100 µM throughout. In addition, the TGI in assay [13] and in assay [14] was more than 100 µM in each case.
`CCOC(=O)c1nc2cc(C(F)(F)F)ccc2nc1Oc1ccc(C(=O)OC)cc1`: the TGI in [1], in assay [2], in assay [3], in assay [4], in assay [5] and in assay [6] was more than 100 µM in each case. Further, the TGI in assay [8], in [9], in assay [10], in [11], in assay [12] and in assay [15] was more than 100 µM each time. Also, the TGI in [13] and in [14] was more than 100 µM throughout.
For `C[N+]1(CCCC[N+]2(C)CCCCCCC2)CCCCCCC1`, the TGI in assay [1], in [2], in assay [3], in assay [4], in [5] and in assay [6] was more than 100 µM in each case. Further, the TGI in assay [8], in assay [9], in [10], in assay [11], in [15] and in assay [13] was more than 100 µM throughout. In [14], this compound showed a TGI of more than 100 µM.
For the compound `CN(C)C(=O)C(F)(F)C(c1ccc(C(F)(F)F)cc1)C1C(=O)N(C)C(=O)N(C)C1=O` (configuration not stated), the TGI in [1], in assay [2], in assay [3], in assay [4], in assay [5] and in [7] was more than 100 µM each time. Moreover, the TGI in [8], in [9], in assay [10], in [12], in assay [13] and in assay [14] was more than 100 µM throughout.
Turning to `CCCCCCCCCCCCCCC[C@@H](O)C[N+](C)(C)CCO`, the TGI was 22.9 µM in assay [1]; 33.4 µM in [2]; 35.6 µM in [4]; 10.1 µM in assay [5]; more than 24.5 µM in assay [6]; 36 µM in [7]. For the same compound, the TGI was 29.1 µM in assay [8]; 34.3 µM in [9]; 52.5 µM in [10]; 30 µM in assay [11]; 14.6 µM in assay [12]; 15.4 µM in assay [15]. Further, the TGI in assay [13] was 5.01 µM; in assay [14], 49.2 µM.
On to `Cc1nc2ccc(S(=O)(=O)Nc3ccccc3Cl)cc2c(=O)n1NC(=O)CNc1ccccc1Cl`, for which the TGI in assay [1], in assay [2], in assay [4], in assay [5], in assay [6] and in assay [7] was more than 100 µM throughout. For the same compound, the TGI in assay [8], in assay [9], in [10], in [11], in [12] and in assay [15] was more than 100 µM each time. Also, the TGI in [13] and in [14] was more than 100 µM in each case.
Consider `O=C1c2ccccc2-n2c1nc1cc(Cl)ccc1c2=O`, for which the TGI in [1] was more than 100 µM; in assay [2], 4.23 µM; in [3], more than 100 µM; in [4], more than 100 µM; in assay [5] it was more than 100 µM; in assay [6], more than 100 µM. Moreover, the TGI was more than 100 µM in assay [7]; more than 100 µM in assay [8]; more than 100 µM in [9]; more than 100 µM in assay [11]; more than 100 µM in assay [12]; 21.9 µM in assay [15]. Further, the figures for the TGI in assay [13] and in [14] were more than 100 µM and 29.1 µM, respectively.
As to `N#CC1C(=O)NC2=C(CCOc3c2ccc2ccccc32)C1c1ccc(F)cc1` (configuration not stated), the TGI was more than 100 µM in [1]; more than 100 µM in assay [2]; 36 µM in assay [3]; 24.7 µM in [4]; 42.4 µM in assay [5]; more than 100 µM in assay [6]. Further, the TGI is 55 µM in [7]; more than 100 µM in [8]; 43.8 µM in assay [9]; more than 100 µM in [11]; more than 100 µM in assay [12]; 79 µM in [15]. Also, the TGI in [13] and in assay [14] was more than 100 µM in each case.
